# Species on record: Rattus norvegicus
# Assay: Open TG-GATES - Regimen: Single
# Assay type: toxicity, organism-based, Sprague-Dawley
# Design: regimen Single, gender Male, age 6 weeks
# Settings: in vivo, po, 50 mg/kg, route gavage, dose level Low; for APTT / Bas / Eos / Fbg / Hb / Ht / Lym / MCH / MCHC / MCV / Mono / Neu / PT / Plat / RBC / Ret / WBC: tissue Blood; for KIDNEY_L / KIDNEY_R / KIDNEY_TOTAL: tissue Kidney; for LIVER: tissue Liver; for A/G / ALP / ALT / AST / BUN / CRE / Ca / Cl / DBIL / GLC / IP / K / LDH / Na / PL / RALB / TBIL / TC / TG / TP / gamma-GTP: tissue Plasma
structure (smiles),measurement,setting,value
CN1C(=O)CCS(=O)(=O)C1c1ccc(Cl)cc1 (configuration not stated) [CHLORMEZANONE],TERMINAL_BW,3 h,228.4 g
same,APTT,3 h,16.7 s
same,Bas,3 h,0%
same,Eos,3 h,1%
same,Fbg,3 h,319.2 mg/dL
same,Hb,3 h,13.2 g/dL
same,Ht,3 h,39.3%
same,Lym,3 h,73.8%
same,MCH,3 h,21.6 pg
same,MCHC,3 h,33.6%
same,MCV,3 h,64.3 fL
same,Mono,3 h,4%
same,Neu,3 h,20.6%
same,PT,3 h,13 s
same,Plat,3 h,111.8 x10_4/uL
same,RBC,3 h,611.6 x10_4/ul
same,Ret,3 h,9.4%
same,WBC,3 h,84.7 x10_2/uL
same,KIDNEY_L,3 h,0.9 g
same,KIDNEY_R,3 h,0.9 g
same,KIDNEY_TOTAL,3 h,1.9 g
same,LIVER,3 h,10.4 g
same,A/G,3 h,0.9
same,ALP,3 h,1492 IU/L
same,ALT,3 h,52.6 IU/L
same,AST,3 h,80.2 IU/L
same,BUN,3 h,8.8 mg/dL
same,CRE,3 h,0.2 mg/dL
same,Ca,3 h,11.6 mg/dL
same,Cl,3 h,105.2 meq/L
same,DBIL,3 h,0.018 mg/dL
same,GLC,3 h,187 mg/dL
same,IP,3 h,9.6 mg/dL
same,K,3 h,4 meq/L
same,LDH,3 h,60.2 IU/L
same,Na,3 h,141.6 meq/L
same,PL,3 h,155 mg/dL
same,RALB,3 h,2.7 g/dL
same,TBIL,3 h,0.046 mg/dL
same,TC,3 h,83.6 mg/dL
same,TG,3 h,75.4 mg/dL
same,TP,3 h,5.7 g/dL
same,gamma-GTP,3 h,1 IU/L
same,TERMINAL_BW,6 h,227.2 g
same,APTT,6 h,15 s
same,Bas,6 h,0%
same,Eos,6 h,0.8%
same,Fbg,6 h,321.2 mg/dL
same,Hb,6 h,13.8 g/dL
same,Ht,6 h,40.9%
same,Lym,6 h,76.8%
same,MCH,6 h,21.6 pg
same,MCHC,6 h,33.7%
same,MCV,6 h,64.2 fL
same,Mono,6 h,3.4%
same,Neu,6 h,18.2%
same,PT,6 h,13.2 s
same,Plat,6 h,115.1 x10_4/uL
same,RBC,6 h,637.2 x10_4/ul
same,Ret,6 h,7.3%
same,WBC,6 h,83.9 x10_2/uL
same,KIDNEY_L,6 h,0.9 g
same,KIDNEY_R,6 h,1 g
same,KIDNEY_TOTAL,6 h,1.9 g
same,LIVER,6 h,9.5 g
same,A/G,6 h,0.9
same,ALP,6 h,1829.6 IU/L
same,ALT,6 h,38.6 IU/L
same,AST,6 h,71.4 IU/L
same,BUN,6 h,8.8 mg/dL
same,CRE,6 h,0.2 mg/dL
same,Ca,6 h,11.6 mg/dL
same,Cl,6 h,107 meq/L
same,DBIL,6 h,0.016 mg/dL
same,GLC,6 h,189.8 mg/dL
same,IP,6 h,10.3 mg/dL
same,K,6 h,4.1 meq/L
same,LDH,6 h,56.8 IU/L
same,Na,6 h,143.2 meq/L
same,PL,6 h,153 mg/dL
same,RALB,6 h,2.7 g/dL
same,TBIL,6 h,0.038 mg/dL
same,TC,6 h,78 mg/dL
same,TG,6 h,68.4 mg/dL
same,TP,6 h,5.7 g/dL
same,gamma-GTP,6 h,1.2 IU/L
same,TERMINAL_BW,9 h,227.8 g
same,APTT,9 h,14.1 s
same,Bas,9 h,0%
same,Eos,9 h,0.8%
same,Fbg,9 h,351 mg/dL
same,Hb,9 h,13.4 g/dL
same,Ht,9 h,39.3%
same,Lym,9 h,77.8%
same,MCH,9 h,22.3 pg
same,MCHC,9 h,34.1%
same,MCV,9 h,65.5 fL
same,Mono,9 h,2.2%
same,Neu,9 h,18%
same,PT,9 h,13.5 s
same,Plat,9 h,121.2 x10_4/uL
same,RBC,9 h,601.6 x10_4/ul
same,Ret,9 h,8%
same,WBC,9 h,76.9 x10_2/uL
same,KIDNEY_L,9 h,1 g
same,KIDNEY_R,9 h,0.9 g
same,KIDNEY_TOTAL,9 h,1.9 g
same,LIVER,9 h,9.2 g
same,A/G,9 h,0.9
same,ALP,9 h,1623.2 IU/L
same,ALT,9 h,34.4 IU/L
same,AST,9 h,71.6 IU/L
same,BUN,9 h,9.4 mg/dL
same,CRE,9 h,0.2 mg/dL
same,Ca,9 h,11.2 mg/dL
same,Cl,9 h,106.4 meq/L
same,DBIL,9 h,0.02 mg/dL
same,GLC,9 h,191.4 mg/dL
same,IP,9 h,11.9 mg/dL
same,K,9 h,4 meq/L
same,LDH,9 h,57.6 IU/L
same,Na,9 h,143.8 meq/L
same,PL,9 h,121.4 mg/dL
same,RALB,9 h,2.6 g/dL
same,TBIL,9 h,0.038 mg/dL
same,TC,9 h,67.2 mg/dL
same,TG,9 h,50.4 mg/dL
same,TP,9 h,5.5 g/dL
same,gamma-GTP,9 h,1 IU/L
same,TERMINAL_BW,24 h,234.7 g
same,APTT,24 h,16.1 s
same,Bas,24 h,0%
same,Eos,24 h,0.8%
same,Fbg,24 h,278.2 mg/dL
same,Hb,24 h,13.6 g/dL
same,Ht,24 h,39.7%
same,Lym,24 h,75%
same,MCH,24 h,21.7 pg
same,MCHC,24 h,34.4%
same,MCV,24 h,63.3 fL
same,Mono,24 h,3.4%
same,Neu,24 h,20.2%
same,PT,24 h,13 s
same,Plat,24 h,113.6 x10_4/uL
same,RBC,24 h,626.8 x10_4/ul
same,Ret,24 h,7.6%
same,WBC,24 h,72.4 x10_2/uL
same,KIDNEY_L,24 h,1.1 g
same,KIDNEY_R,24 h,1 g
same,KIDNEY_TOTAL,24 h,2.1 g
same,LIVER,24 h,11.3 g
same,A/G,24 h,0.9
same,ALP,24 h,1615.6 IU/L
same,ALT,24 h,45 IU/L
same,AST,24 h,77.4 IU/L
same,BUN,24 h,14.8 mg/dL
same,CRE,24 h,0.2 mg/dL
same,Ca,24 h,11.1 mg/dL
same,Cl,24 h,106.2 meq/L
same,DBIL,24 h,0.02 mg/dL
same,GLC,24 h,182.2 mg/dL
same,IP,24 h,7.4 mg/dL
same,K,24 h,4.2 meq/L
same,LDH,24 h,83 IU/L
same,Na,24 h,142 meq/L
same,PL,24 h,137.8 mg/dL
same,RALB,24 h,2.6 g/dL
same,TBIL,24 h,0.024 mg/dL
same,TC,24 h,80.4 mg/dL
same,TG,24 h,92.4 mg/dL
same,TP,24 h,5.6 g/dL
same,gamma-GTP,24 h,1.2 IU/L

# From ChEMBL document CHEMBL3885861, “Open TG-GATES”
